Data taken from PubChem BioAssay AID256 (DTP/NCI, 2004).
Several values for one entry are separate records, joined by “and”; a condition that tells them apart may be missing. Equal values may be shown once. Toxic doses and inconclusive results are not listed.

Tested on: CD2F1 mice, L1210 leukemia ip, survival T/C
Assay: NCI In Vivo Anticancer Drug Screen. Data for tumor model L1210 Leukemia (intraperitoneal) in CD2F1 (CDF1) mice
Conditions: higher = longer survival
Outline: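 Each value reflects a quotient of treated over vehicle control outcomes in mice with a transplanted tumor.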

[1] = endpoint: mean survival time, dose: 75.0 mg/kg/injection, schedule: Q01DX001 (ip), vehicle: saline
[2] = endpoint: mean survival time, dose: 150.0 mg/kg/injection, schedule: Q01DX001 (ip), vehicle: saline
[3] = endpoint: mean survival time, dose: 100.0 mg/kg/injection, schedule: Q04DX002 (ip), vehicle: saline with Tween-80
[4] = endpoint: mean survival time, dose: 25.0 mg/kg/injection, schedule: Q01DX001 (ip), vehicle: saline with Tween-80
[5] = endpoint: mean survival time, dose: 50.0 mg/kg/injection, schedule: Q01DX001 (ip), vehicle: saline with Tween-80
[6] = endpoint: mean survival time, dose: 100.0 mg/kg/injection, schedule: Q01DX001 (ip), vehicle: saline with Tween-80
[7] = endpoint: mean survival time, dose: 25.0 mg/kg/injection, schedule: Q01DX009 (ip), vehicle: saline
[8] = endpoint: mean survival time, dose: 50.0 mg/kg/injection, schedule: Q01DX009 (ip), vehicle: saline
[9] = endpoint: mean survival time, dose: 50.0 mg/kg/injection, schedule: Q01DX009 (ip), vehicle: saline with Tween-80
[10] = endpoint: mean survival time, dose: 100.0 mg/kg/injection, schedule: Q01DX009 (ip), vehicle: saline with Tween-80
[11] = endpoint: mean survival time, dose: 100.0 mg/kg/injection, schedule: Q04DX003 (ip), vehicle: saline with Tween-80
[12] = endpoint: mean survival time, dose: 200.0 mg/kg/injection, schedule: Q04DX003 (ip), vehicle: saline with Tween-80
[13] = endpoint: mean survival time, dose: 400.0 mg/kg/injection, schedule: Q04DX003 (ip), vehicle: saline with Tween-80
[14] = endpoint: mean survival time, dose: 200.0 mg/kg/injection, schedule: Q04DX002 (ip), vehicle: saline with Tween-80
[15] = endpoint: mean survival time, dose: 400.0 mg/kg/injection, schedule: Q04DX002 (ip), vehicle: saline with Tween-80
[16] = endpoint: mean survival time, dose: 12.5 mg/kg/injection, schedule: Q01DX009 (ip), vehicle: saline with Tween-80
[17] = endpoint: mean survival time, dose: 25.0 mg/kg/injection, schedule: Q01DX009 (ip), vehicle: saline with Tween-80
[18] = endpoint: mean survival time, dose: 200.0 mg/kg/injection, schedule: Q01DX009 (ip), vehicle: saline with Tween-80
[19] = endpoint: mean survival time, dose: 100.0 mg/kg/injection, schedule: Q01DX009 (ip), vehicle: saline

SMILES: CCC(C#N)=C1CCCCC1
- T/C (endpoint: mean survival time, dose: 25.0 mg/kg/injection, schedule: Q04DX003 (ip), vehicle: saline): 93 % of control
- T/C (endpoint: mean survival time, dose: 50.0 mg/kg/injection, schedule: Q04DX003 (ip), vehicle: saline): 91 % of control
- T/C (endpoint: mean survival time, dose: 100.0 mg/kg/injection, schedule: Q04DX003 (ip), vehicle: saline): 91 % of control

SMILES: CC(Cc1ccccc1)NNC(C)Cc1ccccc1 (configuration not stated)
- T/C [1]: 98 % of control
- T/C [2]: 102 % of control
- T/C (endpoint: mean survival time, dose: 300.0 mg/kg/injection, schedule: Q01DX001 (ip), vehicle: saline): 97 % of control

SMILES: CCc1cccc(CC)c1NC(=S)NN
- T/C (endpoint: mean survival time, dose: 25.0 mg/kg/injection, schedule: Q04DX002 (ip), vehicle: saline with Tween-80): 104 % of control
- T/C (endpoint: mean survival time, dose: 50.0 mg/kg/injection, schedule: Q04DX002 (ip), vehicle: saline with Tween-80): 96 % of control
- T/C [3]: 96 % of control

SMILES: CCN(CC)Cc1cc(Nc2c3ccc(Cl)cc3nc3ccc(OC)nc23)ccc1O
- T/C [4]: 94 % of control
- T/C [5]: 94 % of control
- T/C [6]: 90 % of control
- T/C (endpoint: mean survival time, dose: 200.0 mg/kg/injection, schedule: Q01DX001 (ip), vehicle: saline with Tween-80): 95 % of control
- T/C (endpoint: mean survival time, dose: 400.0 mg/kg/injection, schedule: Q01DX001 (ip), vehicle: saline with Tween-80): 91 % of control

SMILES: Cn1cnc(C(=N)[Se])c1N
- T/C (endpoint: mean survival time, dose: 0.78 mg/kg/injection, schedule: Q01DX005 (ip), vehicle: water): 90 % of control
- T/C (endpoint: mean survival time, dose: 1.56 mg/kg/injection, schedule: Q01DX005 (ip), vehicle: water): 102 % of control
- T/C (endpoint: mean survival time, dose: 3.13 mg/kg/injection, schedule: Q01DX005 (ip), vehicle: water): 100 % of control
- T/C (endpoint: mean survival time, dose: 6.25 mg/kg/injection, schedule: Q01DX005 (ip), vehicle: water): 90 % of control
- T/C (endpoint: mean survival time, dose: 12.5 mg/kg/injection, schedule: Q01DX005 (ip), vehicle: water): 100 % of control

SMILES: O=[N+]([O-])O.[Sc]
- T/C (endpoint: mean survival time, dose: 6.25 mg/kg/injection, schedule: Q01DX009 (ip), vehicle: saline): 93 % of control
- T/C (endpoint: mean survival time, dose: 12.5 mg/kg/injection, schedule: Q01DX009 (ip), vehicle: saline): 90 % of control
- T/C [7]: 88 % of control
- T/C (endpoint: mean survival time, dose: 100.0 mg/kg/injection, schedule: Q01DX001 (ip), vehicle: saline): 100 % of control
- T/C (endpoint: mean survival time, dose: 400.0 mg/kg/injection, schedule: Q01DX001 (ip), vehicle: saline): 93 % of control

SMILES: ClCC(Cl)CN1CCCCC1 (configuration not stated)
- T/C [7]: 100 % of control
- T/C [8]: 103 % of control

SMILES: CC(O)Cc1c(Cc2ccccc2)nc(-c2ccccc2)[nH]c1=O (configuration not stated)
- T/C [9]: 91 % of control
- T/C [10]: 90 % of control
- T/C [11]: 95 % of control
- T/C [12]: 90 % of control
- T/C [13]: 88 % of control

SMILES: COC(=O)c1cc(-c2ccccc2)n(-c2ccccc2)c1-c1ccccc1
- T/C (endpoint: mean survival time, dose: 100.0 mg/kg/injection, schedule: Q01DX001 (ip), vehicle: Klucel (hydroxypropylcellulose) (HPC)): 94 % of control
- T/C [3]: 90 % of control
- T/C (endpoint: mean survival time, dose: 200.0 mg/kg/injection, schedule: Q01DX001 (ip), vehicle: Klucel (hydroxypropylcellulose) (HPC)): 89 % of control
- T/C [14]: 87 % of control
- T/C (endpoint: mean survival time, dose: 400.0 mg/kg/injection, schedule: Q01DX001 (ip), vehicle: Klucel (hydroxypropylcellulose) (HPC)): 89 % of control
- T/C [15]: 94 % of control

SMILES: CCN1/C(=C/C(C)=C/c2sc3ccccc3[n+]2CC)Sc2ccccc21
- T/C (endpoint: mean survival time, dose: 5.0 mg/kg/injection, schedule: Q01DX001 (ip), vehicle: other): 96 % of control
- T/C (endpoint: mean survival time, dose: 200.0 micrograms/kg/injection, schedule: Q04DX003 (ip), vehicle: Klucel (hydroxypropylcellulose) (HPC)): 104 % of control
- T/C (endpoint: mean survival time, dose: 400.0 micrograms/kg/injection, schedule: Q04DX003 (ip), vehicle: Klucel (hydroxypropylcellulose) (HPC)): 104 % of control

SMILES: Cc1ccccc1-[n+]1nc(-c2ccccc2)nn1-c1ccccc1
- T/C (endpoint: mean survival time, dose: 1.25 mg/kg/injection, schedule: Q01DX009 (ip), vehicle: saline sonified): 104 % of control
- T/C (endpoint: mean survival time, dose: 5.0 mg/kg/injection, schedule: Q04DX003 (ip), vehicle: saline with Tween-80): 98 % of control

SMILES: Nc1nc2n[nH]nc2c(=O)[nH]1
- T/C (endpoint: mean survival time, dose: 0.78 mg/kg/injection, schedule: Q01DX009 (ip), vehicle: saline with Tween-80): 103 % of control
- T/C (endpoint: mean survival time, dose: 1.56 mg/kg/injection, schedule: Q01DX009 (ip), vehicle: saline with Tween-80): 115 % of control
- T/C [16]: 150 % of control
- T/C [17]: 151 % of control
- T/C (endpoint: mean survival time, dose: 50.0 mg/kg/injection, schedule: Q01DX009 (ip), vehicle: other): 154 % of control
- T/C [9]: 156 % of control and 158 % of control
- T/C (endpoint: mean survival time, dose: 50.0 mg/kg/injection, schedule: Q03DX003 (ip), vehicle: other): 120 % of control
- T/C (endpoint: mean survival time, dose: 50.0 mg/kg/injection, schedule: Q04DX003 (ip), vehicle: other): 111 % of control
- T/C (endpoint: mean survival time, dose: 75.0 mg/kg/injection, schedule: Q01DX009 (ip), vehicle: saline with Tween-80): 114 % of control
- T/C (endpoint: mean survival time, dose: 100.0 mg/kg/injection, schedule: Q01DX001 (ip), vehicle: saline sonified): 108 % of control
- T/C (endpoint: mean survival time, dose: 100.0 mg/kg/injection, schedule: Q01DX009 (ip), vehicle: other): 153 % of control
- T/C [10]: 97 % of control and 107 % of control
- T/C (endpoint: mean survival time, dose: 100.0 mg/kg/injection, schedule: Q04DX003 (ip), vehicle: other): 123 % of control
- T/C (endpoint: mean survival time, dose: 200.0 mg/kg/injection, schedule: Q01DX001 (ip), vehicle: saline sonified): 108 % of control
- T/C (endpoint: mean survival time, dose: 200.0 mg/kg/injection, schedule: Q01DX007 (ip), vehicle: other): 150 % of control
- T/C (endpoint: mean survival time, dose: 200.0 mg/kg/injection, schedule: Q01DX009 (ip), vehicle: other): 153 % of control
- T/C (endpoint: mean survival time, dose: 200.0 mg/kg/injection, schedule: Q01DX009 (ip), vehicle: saline sonified): 106 % of control
- T/C [18]: 97 % of control
- T/C (endpoint: mean survival time, dose: 200.0 mg/kg/injection, schedule: Q03DX003 (ip), vehicle: other): 120 % of control
- T/C (endpoint: mean survival time, dose: 200.0 mg/kg/injection, schedule: Q04DX003 (ip), vehicle: other): 119 % of control
- T/C (endpoint: mean survival time, dose: 400.0 mg/kg/injection, schedule: Q01DX001 (ip), vehicle: saline sonified): 112 % of control
- T/C (endpoint: median survival time, dose: 50.0 mg/kg/injection, schedule: Q01DX009 (ip), vehicle: saline): 164 % of control
- T/C (endpoint: median survival time, dose: 100.0 mg/kg/injection, schedule: Q01DX009 (ip), vehicle: saline): 164 % of control
- T/C (endpoint: median survival time, dose: 200.0 mg/kg/injection, schedule: Q01DX009 (ip), vehicle: saline): 164 % of control
- T/C (endpoint: median survival time, dose: 400.0 mg/kg/injection, schedule: Q01DX009 (ip), vehicle: saline): 111 % of control

SMILES: CCOC(=O)C(N)C[S][Sn]([CH3])([CH3])[Cl] (configuration not stated)
- T/C (endpoint: median survival time, dose: 3.12 mg/kg/injection, schedule: Q01DX009 (ip), vehicle: saline): 98 % of control
- T/C (endpoint: median survival time, dose: 6.25 mg/kg/injection, schedule: Q01DX009 (ip), vehicle: saline): 97 % of control
- T/C (endpoint: median survival time, dose: 12.5 mg/kg/injection, schedule: Q01DX009 (ip), vehicle: saline): 100 % of control
- T/C (endpoint: median survival time, dose: 25.0 mg/kg/injection, schedule: Q01DX009 (ip), vehicle: saline): 89 % of control

SMILES: Cn1cnc2ccc(Cl)cc21
- T/C [9]: 102 % of control
- T/C [10]: 98 % of control
- T/C [18]: 95 % of control

SMILES: CCOC(=O)CCC(=O)CC(O)(C(F)(F)F)C(F)(F)Cl (configuration not stated)
- T/C [19]: 104 % of control
- T/C [11]: 86 % of control
- T/C (endpoint: mean survival time, dose: 200.0 mg/kg/injection, schedule: Q01DX009 (ip), vehicle: saline): 98 % of control
- T/C [12]: 103 % of control
- T/C (endpoint: mean survival time, dose: 400.0 mg/kg/injection, schedule: Q01DX009 (ip), vehicle: saline): 107 % of control
- T/C [13]: 96 % of control

SMILES: O=C(Nc1ccc(Cl)c(Cl)c1)Nc1ccc(Cl)c(Cl)c1 (tested in a mixture with another compound)
- T/C [3]: 97 % of control
- T/C [14]: 90 % of control
- T/C [15]: 97 % of control

SMILES: CCCC(CCC)NCCO
- T/C [1]: 98 % of control
- T/C [2]: 96 % of control

SMILES: N=C(N)SCc1cccs1
- T/C [7]: 100 % of control
- T/C [8]: 103 % of control
- T/C [19]: 95 % of control

SMILES: O=C(c1cccnc1)c1c[nH]c2ccccc12
- T/C [3]: 101 % of control
- T/C [14]: 97 % of control
- T/C [15]: 97 % of control

SMILES: O=[N+]([O-])c1ccc(Cn2cc[n+](Cc3ccc([N+](=O)[O-])cc3)c2)cc1
- T/C [16]: 98 % of control
- T/C [4]: 108 % of control
- T/C [17]: 90 % of control
- T/C [5]: 104 % of control
- T/C [9]: 93 % of control
- T/C [6]: 98 % of control
